How the values were obtained:
[1] = tested on: Salmonella typhimurium strains TA98 and TA mixed; assay: AMES II assay; type: cell-based; details: absence and presence of S9
Description: Biological Example 7: AMES II Assay
The aim of this study was to evaluate compound(s) and/or their metabolite(s) for their ability to induce reverse mutations in a gene of histidine-requiring Salmonella typhimurium strains to produce histidine-independent strains of these bacteria, in the absence and in the presence of a mammalian metabolic activation system.
Mutagenic potential was assessed by using an in-house adaptation of the Ames II Mutagenicity Assay kit from Xenometrics (Boulder, CA, USA). The strains TA98 and TA mixed (a combination of 6 strains) used in this study were able to detect frame-shift mutations and base pair substitutions respectively. […]
In the in vitro gene reverse mutation test, effects were determined by exposing a mutant strain of Salmonella typhimurium to various concentrations of the test compound. […] These colonies (revertants) are readily detectable due to their ability to grow on a histidine deficient medium. […] The revertant bacteria are detected by their ability to grow in the absence of the amino acid required by the parent test strain. […] The strains containing the plasmid, pKM101, are reverted by a number of mutagens that are detected weakly or not at all with the non plasmid bearing parent strains. […]

human plasma kallikrein = human plasma kallikrein (Homo sapiens, UniProt P03952); assay: Kallikrein inhibition assay utilizing quenched AMC peptide substrate; type: biochemical; details: read-out: Plasma kallikrein (PK) IC50
Chain of human plasma kallikrein (P03952 391-638 limits assumed): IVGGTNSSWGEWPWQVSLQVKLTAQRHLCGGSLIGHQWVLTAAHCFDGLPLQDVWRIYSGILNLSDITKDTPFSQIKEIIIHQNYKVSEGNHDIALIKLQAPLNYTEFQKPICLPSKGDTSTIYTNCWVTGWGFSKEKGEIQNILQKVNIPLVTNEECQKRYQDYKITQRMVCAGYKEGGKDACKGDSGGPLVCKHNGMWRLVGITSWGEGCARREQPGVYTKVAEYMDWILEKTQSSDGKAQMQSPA
Chain of human plasma kallikrein (P03952 20-390 partner limits assumed): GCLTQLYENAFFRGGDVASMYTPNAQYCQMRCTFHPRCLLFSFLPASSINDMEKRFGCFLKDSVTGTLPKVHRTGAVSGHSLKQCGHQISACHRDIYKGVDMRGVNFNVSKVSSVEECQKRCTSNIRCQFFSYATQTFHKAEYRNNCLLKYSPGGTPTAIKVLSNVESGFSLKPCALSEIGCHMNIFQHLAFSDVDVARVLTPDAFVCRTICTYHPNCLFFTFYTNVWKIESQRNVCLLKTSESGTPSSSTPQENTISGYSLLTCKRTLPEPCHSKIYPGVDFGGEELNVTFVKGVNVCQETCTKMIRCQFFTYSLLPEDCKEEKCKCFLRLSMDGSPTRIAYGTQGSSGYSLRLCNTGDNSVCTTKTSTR
Description: Biological Example 2: Kallikrein Inhibition Assay
Utilizing Quenched AMC Peptide Substrate
A fluorescence intensity-based assay was used to monitor inhibition of human plasma kallikrein. The peptide substrate, Z-Gly-Pro-Arg-AMC (Purchased from Bachem; Catalog #1-1150) was chosen based on its relatively low KM for kallikrein which enables running the assay at lower substrate concentrations to control background fluorescence. The kinetic parameters for this substrate were determined by fitting titration data to the Michaelis-Menten equation yielding a KM=40 μM, kcat=0.76 s^−1, and kcat/KM=18932 M^−1s^−1.
Kallikrein FLINT assay was used with the following Z-Gly-Pro-Arg-AMC assay buffer: 50 mM Tris, pH 7.5, 100 mM NaCl, 5 mM CaCl2, 0.1 mg/mL BSA, 0.03% CHAPS. Assay buffer was prepared by mixing all ingredients fresh. 2× Z-Gly-Pro-Arg-AMC peptide substrate was prepared by diluting 10 mM stock into 1× assay buffer for a 100 μM working concentration (50 μM final concentration). The 2× kallikrein stock solution was prepared by diluting 14.76 μM stock in 1× assay buffer for a 4 nM working stock solution (2 nM final concentration).
Test compound(s) were run in an 11-point, 3-fold serial dilution with a final top compound concentration of 1 μM. Final DMSO in assay: 2% DMSO. 2 nM kallikrein and test compound were pre-incubated for 30 minutes and 50 μM substrate was then added to initiate the reaction. The assay was linear using 2 nM kallikrein greater than 30 minutes. More specifically, the assay was run as follows: • 100 nL of 1 mM test compound was dispensed into a black 384-well non-binding Greiner BioOne 784900 plate for 10 μM final concentration with 1% DMSO final concentration; • 5 μL of 1× assay buffer was dispensed to columns 24 (low control) and 5 μL 2× human kallikrein enzyme solution was dispensed to columns 1-23 (column 23 high control); • the plate was centrifuged with a cover plate at 500 rpm for 1 min • the plate was pre-incubated for 30 minutes at room temperature with plate covered; • 5 μL of 2× Z-Gly-Pro-Arg-AMC peptide substrate was dispensed into the entire plate, columns 1-24; • the plate was centrifuged with a “cover” plate at 500 rpm for 1 min; • the plate was read kinetically monitoring fluorescence intensity on the BMG PHERAStar at room temperature, using fluorescence module F1 340 mm/440 mm.
Percent inhibition (IC50) curves were generated per compound tested, and data was analyzed using a 4-parameter logistic fit using GeneData Screener. […]

IC50 (human plasma kallikrein) | SMILES | AMES II assay result [1]
 | O=C1C=C(c2c(-n3cnnn3)ccc(Cl)c2F)C[C@H]2CC[C@@H](c3ncc(-c4ccnc(CO)c4F)[nH]3)N12 [Compound of formula (I-A), (3S,8aR)-7-(3-Chloro-2-fluoro-6-(1H-tetrazol-1-yl)phenyl)-3-(5-(3-fluoro-2-(hydroxymethyl)pyridin-4-yl)-1H-imidazol-2-yl)-2,3,8,8a-tetrahydroindolizin-5(1H)-one] | negative
11 nM | O=C(O)c1nccc(-c2cnc([C@@H]3CC[C@@H]4CC(c5c(-n6cnnn6)ccc(Cl)c5F)=CC(=O)N43)[nH]2)c1F [Compound of formula (II-A), 4-(2-((3S,8aR)-7-(3-chloro-2-fluoro-6-(1H-tetrazol-1-yl)phenyl)-5-oxo-1,2,3,5,8,8a-hexahydroindolizin-3-yl)-1H-imidazol-5-yl)-3-fluoropicolinic acid] | 

From patent publication US12545677B2, “Compounds useful as factor XIa inhibitors” (JANSSEN PHARMACEUTICA NV, priority 2020, dated 2026)
